Measurements: patent US20220249576A1 (priority 2021, published 2022)

What was measured:
[1] = test system: Aspergillus endosomal development; details: previously observed; cited from earlier work
A. flavus = format: cell-based, Aspergillus flavus

Row | Compound | minimal inhibitory concentration (MIC) for disruption of Aspergillus endosomal development [1] [µM] | aflatoxin levels compared to the filipin treated samples (A. flavus) | aflatoxin production compared to untreated control (A. flavus + the exemplary composition) (A. flavus)
1 | CCCCC[C@@H](O)[C@H]1C(=O)O[C@H](C)[C@@H](O)/C=C/C=C/C=C/C=C/C=C(\C)[C@@H](O)C[C@H](O)C[C@H](O)C[C@H](O)C[C@H](O)C[C@H](O)C[C@@H]1O [filipin] | 3 |  | 
2 | C[C@@H]1C/C=C/C=C/C=C/C=C/[C@H](O[C@@H]2O[C@H](C)[C@@H](O)[C@H](N)[C@@H]2O)C[C@@H]2O[C@](O)(C[C@@H](O)C[C@H]3O[C@@H]3/C=C/C(=O)O1)C[C@H](O)[C@H]2C(=O)O [natamycin] | 6 | significantly greater increase | increase aflatoxin production
